Measured values published in patent US5410052A, “Symmetrical and unsymmetrical polyalkylamine metal complexes for ligand extraction and generation” (The Regents of the University of California, priority 1990, dated 1995).

Assay: UV-visible spectroscopic evaluation of oxygen complex formation by cobalt carrier compounds
Format: binding
Excerpt: Initially, solutions of particular carrier compounds are monitored by UV-visible spectroscopy to determine whether the carrier compound forms oxygen complexes of sufficient stability as to be potentially useful in processes according to the present invention. UV-visible spectra of carrier compounds are also observed as a function of the pH to determine the pH range, if any, over which the carrier compounds bind oxygen without decomposition. The initial pH for use in further experiments (the "Working pH") is defined as one pH unit above that at which the proportion of carrier compound-oxygen complex is about 90% or more of the maximum formed under ca. 0.2 atm oxygen, as determined by this spectroscopic examination. […] An initial working pH can also be determined from potentiometric experiments on the oxygen complexes of cobalt carrier compounds, as will be discussed below.
The necessary UV and visible spectra necessary for this evaluation are obtained with any of a variety of commercially available spectrophotometers. The solution to be measured is prepared in or transferred to a suitable quartz cell with provision for the exclusion of oxygen. […] Spectra are then recorded under both oxygen free and oxygenated conditions at each of the desired pH values.

c1ccc(CNCc2cccc(CNCc3ccccn3)n2)nc1 [PAA No. 21, 2,6-Bis(l-(3-(2-Pyridyl)-2-Azapropyl))Pyridine]
oxidation of the cobalt ion of the Co(II) complex (Co(II) complex of the PAA): relatively rapid, irreversible oxidation of the cobalt ion to Co(III)

CN(CCCNCc1ccccn1)CCCNCc1ccccn1 [PAA No. 76, 1,11-Bis(2-Pyridyl)-6-Methyl-2,6,10-Triazaundecane]
oxygen binding of the cobalt complex (cobalt complex of the PAA, spectrophotometric analysis, under conditions of interest): does not appear to bind oxygen
